The values below come from patent US20030060485A1, “(+)-norcisapride” (priority 1997, published 2003).

SMILES strings stand for the structures. Read-outs that look alike come from different tables or passages of the source.

One data set concerns the target T1, 5-HT3 receptor (Cavia porcellus, UniProt O70212).
T1 construct: from tissue; host or cells: guinea-pig ileum segments in organ bath
T1 sequence (O70212 24-490 limits assumed): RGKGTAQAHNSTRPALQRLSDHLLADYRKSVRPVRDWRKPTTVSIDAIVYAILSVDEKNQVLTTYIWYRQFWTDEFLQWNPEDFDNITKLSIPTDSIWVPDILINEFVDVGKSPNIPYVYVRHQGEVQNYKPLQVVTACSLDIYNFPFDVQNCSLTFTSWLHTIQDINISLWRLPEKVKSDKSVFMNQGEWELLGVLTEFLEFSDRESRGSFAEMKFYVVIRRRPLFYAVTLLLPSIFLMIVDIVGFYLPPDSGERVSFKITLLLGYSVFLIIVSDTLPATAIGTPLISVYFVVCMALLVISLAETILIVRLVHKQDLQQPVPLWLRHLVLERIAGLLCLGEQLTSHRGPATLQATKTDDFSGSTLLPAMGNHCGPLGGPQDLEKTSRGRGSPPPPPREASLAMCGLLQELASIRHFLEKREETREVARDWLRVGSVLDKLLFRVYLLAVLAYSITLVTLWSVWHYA
Kind of data set: 5-hydroxykynuramine antagonism on the guinea-pig ileum. In kind it is cell-based, Guinea pigs. The note with it: guinea-pig ileum segments; 5-OH-K 3.10^-6 M; read-out: IC50 reducing the 5-OH-K induced effect by 50%. The protocol: Since 5-OH—K (5-hydroxykynuramine) is a specific agonist at the 5-HT3 receptor, this test evaluates the potential 5-HT3 antagonistic effects.
Guinea pigs of both sexes, body weight±450 g, were killed by decapitation. Non-terminal, (distal 10 cm discarded), intact ileum segments, strips were cleansed, 4.5 cm long, were vertically suspended with a preload of 0.75 g in an 100 ml bath for isotonic recording; [(Displacement Transducer Control Unit; Janssen Scientific Instrument Division), HP7 DGDT-1000 (Hewlett-Packard CY)]. The organ bath was filled with a Tyrode solution, (37.5° C.), gassed with a mixture of 95% O2 and 5% CO2. After a stabilisation period of 20 minutes, methacholine (3.10^−6 M, 30 seconds contacttime) was added to the bathfluid in order to evaluate the potential maximal contraction, whereafter the bathfluid was refreshed, Subsequently, the serotonin agonist 5-OH-K (30 seconds contact time) was added (final concentration 3.10^−6 M) at intervals of 10 minutes, the bath fluid being refreshed 30 seconds after each addition. After reaching reproducible contractile effects, a single dose of the test compound was added to the bath fluid followed 5 minutes later by addition of 5-OH—K. After establishing the log concentration-responds curve of the test compound, IC50 values reducing the 5-OH—K induced effect by 50% were calculated by linear regression analysis.

The test system of data set [1] is guinea-pig ileum longitudinal muscle layer with myenteric plexus. Kind of data set: Guinea-pig ileum coaxial stimulation. Format: cell-based, Dunkin-Hartley guinea-pigs. The settings on record: Cavia porcellus; guinea-pig ileum strips, electrical stimulation 0.1 Hz, 1 ms, submaximal; read-out: EC50 (concentration that stimulates the response to electrical stimulation by 50%). An excerpt: Dunkin-Hartley guinea-pigs of either sex (weighing between 600-900 g) were killed by decapitation. The ileum was removed and cleansed with warmed and oxygenated Krebs-Henseleit solution. Parts of the ileum (15 cm) were slipped over a glass pipette. The longitudinal muscle layer with myenteric plexus was removed by means of a cotton thread moistened with Krebs solution. Strips with a length of 8 cm were folded and these strips (4 cm) were mounted between two platinum electrodes (8 cm length, 0.5 cm apart). The strips were suspended with a preload of 1.5 g in 100 ml Krebs-Henseleit solution (37.5° C.), gassed with a mixture of 95% O2 and 5% CO2. The preparations were excited with single rectangular stimuli [1 ms; 0.1 Hz; submaximal response (current leading to 80% of maximal response), from a programmable stimulator (Janssen Scientific Instruments Division)]. Contractions were measured isometrically (Statham UC2, Janssen Scientific Instruments amplifier, Kipp BD-9 pen-recorder). During the stabilization period of 30 minutes, the strips were repeatedly stretched, in order to obtain a steady state tension of 1.5 g. Before starting the electrical stimulation, a cumulative concentration response curve of acetylcholine (3.10^−9, 10^−8, 3.10^−8 and 10^−7 M) was given. The bath fluid was replaced with fresh Krebs solution and the strips were allowed to stabilize for another 30 minutes. […]

Data set [2] has as its system guinea-pig colon ascendens. Kind of data set: Guinea-pig colon coaxial stimulation. Format: cell-based, Guinea-pigs. The settings on record: Cavia porcellus; guinea-pig colon ascendens segments; read-out: EC50 (concentration that stimulates the maximal tone effect by 50%). On the procedure:
Guinea-pigs of both sexes (body weight±450 g), were killed by decapitation. The colon ascendens was removed and rinsed, whereafter segments of approximately 3 cm length were prepared. These strips were suspended in an organ bath (100 ml) and connected to an isotonic transducer under a preload of 2 g; [Displacement Transducer Control Unit (Janssen Scientific Instrument Division); HP 7 DGDT 1000 (Hewlett-Packard)]. The organ bath was filled with a DeJalon solution (37.5° C.), gassed with a mixture of 95% O2 and 5% CO2. After a stabilization period of 20 minutes, methacholine 3.10^−6 M was added to the bathfluid in order to evaluate the potential maximal effect of the strip (contact time 30 seconds); thereafter, the bathfluid was refreshed. This was repeated at intervals of 10 minutes until a reproducible answer was obtained after addition of methacholine. Thereafter, the test compound was added for 10 minutes. Afterwards, without refreshing the bathfluid, cisapride 3.10^−7 M was added to evaluate a possible 5HT4 effect. When the contraction, caused by cisapride obtained a stable maximal level, methacholine 3.10^−6 M to evaluate a potential anti-cholinergic effect, was added to the bath fluid until a maximal contraction was obtained. The EC50 (i.e. the concentration that stimulates the maximal tone effect by 50%) of a compound, was calculated using linear regression analysis.

The conditions of data set [3]: following oral administration; cited from earlier work.
In data set [4] the test system is MgSO4-induced intestinal lavage. Kind of data set: MgSO4 induced intestinal lavage in dogs. In kind it is in vivo, Beagle dogs. The note with it: Canis lupus familiaris, p.o., 1 hour before magnesium sulphate challenge. On the procedure:
Beagle dogs (of both sexes and varying in body weight, 16 hours deprived from food) were orally pretreated with (+)-norcisapride or solvent and challenged 1 hour later with an oral administration of magnesium sulphate (MgSO4.7H2O, 64g/l, 0.26M; 200 ml). The onset of MgSO4-induced intestinal lavage was assessed over a period of 4 hours after challenge. Liquid stools within 4 hours occured almost never in control animals treated with distilled water (2.5% false positives; n=200) and were considered to reflect significant acceleration of the MgSO4-induced intestinal lavage. Doses in the active dose range were given to five animals each, tested in separate experimental sessions including solvent-treated control animals. All-or-none criteria, based on the distribution of the results obtained in a large number of solvent-treated animals, were used to calculate ED50-values (effective dose) and 95% confidence limits according to Finney's iterative method (Finney, 1962).

The test system of data set [5] is central dopamine antagonism (apomorphine challenge). Kind of data set: Apomorphine, tryptamine, norepinephrine (ATN) test in rats: apomorphine challenge. In kind it is in vivo. The note with it: Rattus norvegicus, subcutaneous pretreatment, central dopamine antagonistic activity. An excerpt: (§1) The absence of central dopamine antagonistic and serotonin antagonistic activity of the subject compounds is evidenced by the experimental data obtained in the combined apomorphine (APO), tryptamine (TRY) and norepinephrine (NOR) test in rats. Said combined apomorphine, tryptamine and norepinephrine test is described in Arch. Int. Pharmacodyn., 227, 238-253 (1977) and provides an empirical evaluation of the relative specificity with which drugs may effect particular neurotransmitter systems centrally (CNS) as well as peripherally. […] Central dopamine antagonism is evaluated by challenging rats, subcutaneously pretreated with different doses of the test compound, with apomorphine which is a dopamine agonist. Next, serotonin antagonism is evaluated by challenging the same rats, subcutaneously pretreated with different doses of the test compound, with tryptamine which is an agonist at serotonin 5HT2-receptors. Both central and peripheral serotonin antagonism can be assessed in this test. Centrally acting serotonin antagonists are potential antipsychotic drugs, in particular when simultaneously displaying dopamine antagonism in the first part of this test. Finally, α-adrenergic antagonistic activity of the test compounds is evaluated by challenging the same rats, subcutaneously pretreated with different doses of the test compound, with norepinephrine which is an a-adrenergic agonist. […]

Data set [6] relates to serotonin 5HT2-receptors (tryptamine challenge). Kind of data set: Apomorphine, tryptamine, norepinephrine (ATN) test in rats: tryptamine challenge. Format: in vivo. The note with it: subcutaneous pretreatment.
Source text: as §1

Data set [7] has as its system α-adrenergic (norepinephrine challenge). Kind of data set: Apomorphine, tryptamine, norepinephrine (ATN) test in rats: norepinephrine challenge. In kind it is in vivo. The note with it: Rattus norvegicus, subcutaneous pretreatment.
Source text: as §1

What is called IC50 is the concentration that gives 50% inhibition. With `COc1cc(N)c(Cl)cc1C(=O)N[C@H]1CCNC[C@H]1OC` (stereo in doubt) [Compound 2, (−)-cis-4-amino-5-chloro-2-methoxy-N-(3-methoxy-4-piperidinyl)benzamide], the IC50 on 5-HT3 receptor is 450 nM. In addition, the EC50 in data set [1] stood at 5000 nM; in data set [2] it was 11000 nM.

Consider `COc1cc(N)c(Cl)cc1C(=O)NC1CCN(CCCOc2ccc(F)cc2)CC1OC` (stereo not drawn) [cisapride], for which, in data set [3], the “unchanged cisapride as share of urinary and fecal recovery” value was “less than 10%”.

What is called ED50 is the dose that gives a 50% effect, or the effect in half of the subjects. Take `COc1cc(N)c(Cl)cc1C(=O)N[C@@H]1CCNC[C@@H]1OC` (stereo in doubt) [Compound 1, (+)-cis-4-amino-5-chloro-2-methoxy-N-(3-methoxy-4-piperidinyl)benzamide]: the ED50 in data set [4] (liquid stools within 1 hour after challenge, read-out: ED50, onset of diarrhoea with 1 hour) is 0.15 mg/kg; in data set [4] (liquid stools within 2 hours after challenge, read-out: ED50, onset of diarrhoea with 2 hours), 0.064 mg/kg; in data set [4] (liquid stools within 3 hours after challenge, read-out: ED50, onset of diarrhoea with 3 hours), 0.049 mg/kg; in data set [4] (liquid stools within 4 hours after challenge, read-out: ED50, onset of diarrhoea with 4 hours), 0.032 mg/kg; in data set [5], above 40 mg/kg; in data set [7], above 40 mg/kg. Besides, the “ED50 TRY convulsions” value in data set [6] (central serotonin antagonistic activity) is on record as above 40 mg/kg. Besides, the “ED50 TRY hyperaemia” value in data set [6] (peripheral serotonin antagonistic activity) worked out at 4.7 mg/kg. At 5-HT3 receptor, the IC50 worked out at 93 nM. Further, the EC50 in data set [1] was 600 nM; in data set [2], 1900 nM.
